Test results: patent US20260021046A1, “LIPID NANOPARTICLE AND PHARMACEUTICAL COMPOSITION” (NATIONAL UNIVERSITY CORPORATION HOKKAIDO UNIVERSITY, priority 2022, published 2026)
Blank lines part the entries; values can stand above or below the molecule they belong to.

Columns and labels:
[1] = tested on: activated hepatic stellate cell line LX-2; test: EGFP mRNA delivery and transfection screening by FACS; format: cell-based; settings: LX-2 cells; EGFP mRNA lipid nanoparticles, 250 ng mRNA per well
Method: Fourteen types of lipid nanoparticles prepared were screened with activated hepatic stellate cell line LX-2 (Merck (Germany) and hepatocyte line FL83B (ATCC, USA).
Twenty-four hours prior to the experiment, cells were seeded in 6-well plates at 1×10^5 cells/well and incubated at 37° C. The medium was aspirated and the cells were washed with (−) PBS and then treated with lipid nanoparticles encapsulating EGFP mRNA (TriLink BioTechnologies, USA) in 1.5 ml of growth medium for 24 hours. The amount of mRNA per well was 250 ng. Cells were then washed with (−) PBS and incubated in fresh medium for an additional 21 hours. The median fluorescence intensity of EGFP and the percentage of transfected cells were evaluated by fluorescence activated cell sorting (FACS) using a flow cytometer (Cytoflex, Beckman Coulter, USA).

[2] = Average particle size, PDI, zeta potential (dynamic light scattering) and RNA encapsulation efficiency (RiboGreen) of lipid nanoparticles; format: physicochemical; settings: CL15H6 lipid nanoparticles with SMO-siRNA
Method: The average particle size, particle size distribution, and zeta potential of the lipid nanoparticles were measured using a Zetasizer Nano ZS (Malvern Instruments Ltd, UK) by dynamic light scattering and the form of lipid nanoparticle was measured using a transmission electron-microscope as described in NPL 12. The efficiency of mRNA encapsulation was estimated by RiboGreen fluorometry as described in NPL 13. Although the respective values vary depending on the type of pH-sensitive cationic lipid, the composition of the lipids constituting the lipid nanoparticles, the preparation conditions of the lipid nanoparticles, and the like, the average particle size of the lipid nanoparticles was in the range of 80 to 350 nm, the PDI was in the range of 0.05 to 0.4, the zeta potential was in the range of −16 to +5 mV, and the efficiency of mRNA encapsulation was 75 to 95%. • [NPL 12] Mahmoud A. Younis, et al., “A Multifunctional Lipid-Based Nanodevice for the Highly Specific Codelivery of Sorafenib and Midkine siRNA to Hepatic Cancer Cells”, Molecular Pharmaceutics, Vol. 16, pp. 4031-4044 • [NPL 13] Mahmoud M. Abd Elwakil, et al., “Engineered &-decalactone lipomers bypass the liver to selectively in vivo deliver mRNA to the lungs without targeting ligands”, Materials Horizons, Vol. 8, pp. 2251-2259
The average particle size, particle size distribution, and zeta potential of the lipid nanoparticles were measured in the same manner as in Example 1 to estimate the efficiency of SMO-siRNA encapsulation. The relationship between the flow rate ratio of the aqueous phase to the organic phase, the average particle size, particle size distribution, zeta potential, and SMO-siRNA encapsulation efficiency of the lipid nanoparticles prepared at the same flow rate ratio when CL15H6 was used as the pH-sensitive cationic lipid is shown in Table 3 below. In the subsequent experiments, lipid nanoparticles were prepared at a ratio of 4:1 (aqueous phase: organic phase), which provided the highest encapsulation efficiency, the smallest average particle size, and the smallest PDI.

SMO mRNA = test: In vivo SMO mRNA knockdown in liver tissue by qRT-PCR; design: species or system mice; settings: 24 hours
Method: TAA-induced liver fibrosis model mice were prepared in the same manner as in Example 1, and SMO-siRNA-encapsulated lipid nanoparticles were intravenously administered to the mice via the tail vein so that the amount of RNA per kg of body weight was 0.5 mg/kg. 24 hours after the administration, the mouse livers were collected. The ratio of the amount of SMO mRNA to the amount of GAPDH mRNA in the liver tissue was confirmed by qRT-PCR. The SMO gene is expressed only in hepatic stellate cells in the liver.
Next, a lipid composition containing CL15H6 and SMO-siRNA were mixed in different ratios to prepare lipid nanoparticles with different nitrogen/phosphate (N/P) ratios. Specifically, lipid nanoparticles were prepared with N/P ratios of 0.5, 1, 2, 4, 8, 12, 16, and 20. The prepared lipid nanoparticles were intravenously administered to mice with liver fibrosis so that the amount of RNA per kg of body weight was 0.5 mg/kg, and the ratio of the amount of SMO mRNA to the amount of GAPDH mRNA in the liver tissue was confirmed 24 hours later.
Next, the relationship between the dosage amount of SMO-siRNA and the ratio of the amount of SMO mRNA to the amount of GAPDH mRNA in the liver tissue was examined. For comparison, the relationship between the dosage amount of control siRNA (siCtrl) and the ratio of SMO mRNA to GAPDH mRNA in hepatic stellate cells was also examined.
Lipid nanoparticles encapsulating a mixture of the above SMO-siRNA and TGFβ1-siRNA at a ratio of 1:1 were prepared by using CL15H6, the above SMO-siRNA (SEQ ID NOs: 1 and 2) targeting the mRNA of the SMO gene and the TGFβ1-siRNA (SEQ ID NOS: 3 and 4) targeting the mRNA of the TGFβ1 gene and having the sequence shown in Table 4 below. The prepared lipid nanoparticles were intravenously administered to mice with liver fibrosis so that each of the amounts of SMO-siRNA and of TGFβ1-siRNA per kg of body weight was 0.25 mg/kg, and 24 hours later, the ratios of the amounts of SMO mRNA and of TGFβ1 mRNA to the amount of GAPDH mRNA in the liver tissue was confirmed.

[3] = Apparent pKa of lipid nanoparticles using TNS; settings: lipid nanoparticles encapsulating mRNA prepared with the lipid, 37° C.
Method: The apparent acid dissociation constant pKa of the lipid membrane of a lipid nanoparticle is measured in a buffer at 37° C. using 6-p-toluidino-2-naphthalenesulfonic acid (TNS) (see Examples).
The apparent pKa of the lipid nanoparticles was also measured using 6-p-toluidino-2-naphthalenesulfonic acid (TNS) (see NPL 14). Specifically, in each well of a 96-well plate, lipid (0.5 mM) of the lipid nanoparticles and TNS (0.6 mM) were added to 200 μL of a buffer solution and mixed. The buffer solution was 20 mM citrate buffer (pH3.50 to 5.50), 20 mM sodium phosphate buffer (pH6.00 to 8.00), or 20 mM Tris-HCl buffer (pH8.00 to 9.00), and each buffer solution contained 150 mM NaCl. At this time, the final concentration of lipid was adjusted to 30 µM and the final concentration of TNS was adjusted to 6 μM. Fluorescence (excitation wavelength 321 nm, fluorescence wavelength 447 nm) was then measured at 37° C. using a plate reader (Enspire 2300 multilabel reader, Perkin Elmer). The pKa was defined as the pH value showing 50% of the maximum fluorescence intensity. • [NPL 14]

[4] = aqueous phase:organic phase 2:1
[5] = aqueous phase:organic phase 3:1
[6] = aqueous phase:organic phase 4:1
[7] = aqueous phase:organic phase 5:1
[8] = aqueous phase:organic phase 9:1

Average particle size [2, 4]: 135.72 nm
Encapsulation efficiency [2, 4]: 66.12%
PDI [2, 4]: 0.280
Zeta potential [2, 4]: −6.81 mV
Average particle size [2, 5]: 72.5 nm
Encapsulation efficiency [2, 5]: 92.33%
PDI [2, 5]: 0.192
Zeta potential [2, 5]: −3.75 mV
Average particle size [2, 6]: 53.45 nm
Encapsulation efficiency [2, 6]: 94.06%
PDI [2, 6]: 0.093
Zeta potential [2, 6]: −3.35 mV
Average particle size [2, 7]: 57.12 nm
Encapsulation efficiency [2, 7]: 89.19%
PDI [2, 7]: 0.169
Zeta potential [2, 7]: −5.08 mV
Average particle size [2, 8]: 58.53 nm
Encapsulation efficiency [2, 8]: 75.55%
PDI [2, 8]: 0.217
Zeta potential [2, 8]: −8.2 mV
SMILES: CCCCCCCC/C=C\CCCCCCCC(=O)OCCCCCCC(O)(CCCCCCOC(=O)CCCCCCC/C=C\CCCCCCCC)CCCCOC(=O)C1CCN(C)CC1 [CL15H6, 7-hydroxy-7-(4-((1-methylpiperidine-4-carbonyl)oxy)butyl)tridecane-1,13-diyl dioleate]
mRNA delivery efficiency (median fluorescence intensity of EGFP) [1]: high
amount of SMO mRNA (ratio to GAPDH mRNA) in liver tissue (SMO mRNA; CL15H6 SMO-siRNA lipid nanoparticles, 0.5 mg/kg iv, N/P ratio 4 among 0.5 to 20): lowest
amount of SMO mRNA (ratio to GAPDH mRNA) in liver tissue (SMO mRNA; SMO-siRNA lipid nanoparticles, 0.5 mg/kg RNA iv, versus HEPES buffer control): significantly reduced

Apparent pKa [3]: 6.25
SMILES: CCCCCCCC/C=C\CCCCCCCC(=O)OCCCCCCC(O)(CCCCCCOC(=O)CCCCCCC/C=C\CCCCCCCC)CCCCN(CCC)CCC [CL4H6]

SMILES: CCCCCCCC/C=C\CCCCCCCC(=O)OCCCCCCC(O)(CCCCCCOC(=O)CCCCCCC/C=C\CCCCCCCC)CCCCN(C)C [CL1H6, 7-(4-(dimethylamino)butyl)-7-hydroxytridecane-1,13-diyl dioleate]
mRNA delivery efficiency (median fluorescence intensity of EGFP) [1]: high

SMILES: CCCCCCCCCCCCCCCC(=O)OCCCCCCC(O)(CCCCCCOC(=O)CCCCCCCCCCCCCCC)CCCCN(C)C [CL1D6, 7-(4-(dimethylamino)butyl)-7-hydroxytridecane-1,13-diyl dipalmitate]
mRNA delivery efficiency (median fluorescence intensity of EGFP) [1]: high

SMILES: CCCCCCCCC(CCCCCC)C(=O)OCCCCCCC(O)(CCCCCCOC(=O)C(CCCCCC)CCCCCCCC)CCCCOC(=O)C1CCN(C)CC1 (stereo not shown) [CL15F6, 7-hydroxy-7-(4-((1-methylpiperidine-4-carbonyl)oxy)butyl)tridecane-1,13-diyl bis(2-hexyldecanoate)]
mRNA delivery efficiency (median fluorescence intensity of EGFP) [1]: high

Apparent pKa [3]: 6.00
SMILES: CCCCCCCCC(CCCCCC)C(=O)OCCCCCCC(O)(CCCCCCOC(=O)C(CCCCCC)CCCCCCCC)CCCCN(CCC)CCC (stereo not shown) [CL4F6]
